Test results from the supplement of paper PMC10307832.

Key:
Assay in all cases: relative viability (nuclei count vs DMSO), 5 days (fraction); higher = more cells survive
[1] = compound: CCn1c(-c2nonc2N)nc2cnc(Oc3cccc(NC(=O)c4ccc(OCCN5CCOCC5)cc4)c3)cc21 + C[C@]1(O)C[C@@H](c2nc(-c3ccc4ccc(-c5ccccc5)nc4c3)c3c(N)nccn32)C1 [Linsitinib] (partner 1 µM)
Summary of the method: (§1)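 Relative viability is defined as nuclei in treated wells over nuclei in vehicle wells. Duplicate plates were run and medians reported. Lung cancer cell lines in 1536-well plates were dosed by pin tool one day after seeding, with one drug or with a fixed anchor-drug dose plus five library-drug doses (not always all listed) in √10 steps, and nuclei were counted after 5 days.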

[2] = compound: CCn1c(-c2nonc2N)nc2cnc(Oc3cccc(NC(=O)c4ccc(OCCN5CCOCC5)cc4)c3)cc21 + CS(=O)(=O)N1CCN(Cc2cc3nc(-c4cccc5[nH]ncc45)nc(N4CCOCC4)c3s2)CC1 [Pictilisib] (partner 1 µM)
Summary of the method: as §1

[3] = compound: N=C1NC(=O)/C(=C/c2ccc(O)cc2)S1 [Mirin] + Nc1nc2[nH]cc(CCc3ccc(C(=O)N[C@@H](CCC(=O)O)C(=O)O)cc3)c2c(=O)[nH]1 [Pemetrexed] (partner 0.2 µM)
Summary of the method: as §1

[4] = compound: N=C1NC(=O)/C(=C/c2ccc(O)cc2)S1 [Mirin] + CC(=O)c1c(C)c2cnc(Nc3ccc(N4CCNCC4)cn3)nc2n(C2CCCC2)c1=O [Palbociclib] (partner 0.5 µM)
Summary of the method: as §1

Row | Cell Line | relative viability ([1]; first compound 0.04 µM) | relative viability ([1]; first compound 0.1265 µM) | relative viability ([1]; first compound 0.4 µM) | relative viability ([1]; first compound 1.265 µM) | relative viability ([1]; first compound 4 µM) | relative viability ([2]; first compound 0.04 µM) | relative viability ([2]; first compound 0.1265 µM) | relative viability ([2]; first compound 0.4 µM) | relative viability ([2]; first compound 1.265 µM) | relative viability ([2]; first compound 4 µM) | relative viability ([3]; first compound 0.25 µM) | relative viability ([3]; first compound 0.7906 µM) | relative viability ([3]; first compound 2.5 µM) | relative viability ([3]; first compound 7.906 µM) | relative viability ([3]; first compound 25 µM) | relative viability ([4]; first compound 0.25 µM) | relative viability ([4]; first compound 0.7906 µM) | relative viability ([4]; first compound 2.5 µM) | relative viability ([4]; first compound 7.906 µM) | relative viability ([4]; first compound 25 µM)
1 | SW 1573 | 0.905 | 0.744 | 0.833 | 0.479 | 0.342 | 0.545 | 0.507 | 0.492 | 0.487 | 0.312 | 0.742 | 0.84 | 0.818 | 0.715 | 0.642 | 0.366 | 0.42 | 0.375 | 0.42 | 0.292
2 | EKVX | 1.42 | 1.02 | 1.08 | 0.813 | 0.976 | 0.46 | 0.505 | 0.491 | 0.406 | 0.481 | 0.379 | 0.318 | 0.397 | 0.502 | 0.346 | 0.367 | 0.376 | 0.302 | 0.365 | 0.412
3 | NCI-H2087 | – | 0.682 | 0.762 | 0.747 | 0.828 | – | 1.07 | 0.981 | 0.881 | 0.785 | 0.69 | 0.715 | 0.66 | 0.678 | 0.708 | 0.227 | 0.297 | 0.249 | 0.133 | 0.318
4 | HCC-827 | 0.974 | 0.907 | 0.94 | 0.992 | 0.823 | 1.08 | 1.06 | 1.09 | 0.824 | 0.933 | 0.246 | 0.258 | 0.224 | 0.254 | 0.282 | 0.524 | 0.37 | 0.459 | 0.439 | 0.418
5 | NCI-H661 | 0.652 | 0.612 | 0.518 | 0.471 | 0.45 | 0.415 | 0.457 | 0.33 | 0.202 | 0.288 | 0.906 | 1.01 | 0.942 | 0.953 | 0.822 | 0.416 | 0.426 | 0.406 | 0.369 | 0.401
6 | CAL-12T | 1.12 | 1.01 | 0.768 | 0.704 | 0.731 | 0.486 | 0.549 | 0.525 | – | 0.408 | 1.15 | 1.11 | 1.15 | 1.29 | 1.37 | 0.265 | 0.193 | 0.508 | 0.408 | 0.339
7 | EPLC-272H | 1.35 | 1.12 | 1.14 | 1.1 | 1.18 | 0.406 | 0.341 | 0.181 | 0.258 | 0.281 | 0.371 | 0.307 | 0.309 | 0.323 | 0.192 | 0.283 | – | 0.339 | 0.345 | 0.353
8 | A-427 | 1.2 | 1.16 | 1.15 | 1.06 | 1.06 | 0.879 | 0.674 | 0.666 | 0.526 | 0.402 | 1 | 0.957 | 1.02 | 0.991 | 0.934 | 0.494 | 0.5 | 0.552 | 0.516 | 0.504
